From patent US20160251342A1, “ALDEHYDE DERIVATIVE OF SUBSTITUTED OXAZOLIDINONES” (WANBURY LTD., priority 2012, published 2016) come the findings set out here.

The nature of data set [1]: Anticoagulant activity (PT, APTT) in human plasma. In kind it is biochemical. Conditions: 0.1 to 1.0 μg/mL, PT and APTT. The method, then: The anticoagulant action of the test substance (compound formula-B) and rivaroxaban was determined in vitro using human plasma. The human plasma used for this experiment was separated from the blood collected in sodium citrate as anticoagulant. The prothrombin time (PT) was determined by using a commercial test kit (Neoplastin from Stagid) and APTT was determined using (Synthasil kit by IL). […] Coagulation was then started by addition of thromboplastin, and time when coagulation occurred was determined. The concentration of test substance which effected a doubling of prothrombin time was determined.

For data set [2], the system named is plasma protein. Put plainly: Plasma protein binding (dialysis), human. In kind it is in vitro ADME. As to the method:
A compound solution (1 mM in DMSO) (5 μL), according to the invention is added to the respective plasma matrices of rat or human or mouse (1 ml).
Add 150 μl of phosphate buffer to receiving side of the dialysis well. […] Precipitate with Acetonitrile and dilute samples prior to analysis in 1.5 ml polypropylene tubes. Remove 50 μl from the sample side of dialysis well and add 50 μl of phosphate buffer+300 μl of acetonitrile containing IS. Remove 50 μl from the buffer side of the dialysis well and add 50 μl of respective matrix plasma+300 μl of ACN. Then vortexed and centrifuged for 5 min, and supernatant is taken and injected into LCMS.
Different test concentration ranging from 0.1 μM to 20 μM are made in methanol:water (90:10). Test solutions are added to the premixed matrix containing plasma:phosphate buffer (50:50). Precipitate with 300 μl of ice cold acetonitrile containing IS, vortexes and centrifuged. Supernatant is taken and injected into LCMS.
Percentage of plasma protein binding was obtained via Equation (2): % Fraction unbound=(concentration on the buffer side/concentration on the sample side)*100

Data set [3] is described as follows: Intravenous and oral excretion profile in Wistar rats. In kind it is in vivo. The note with it: after i.v. administration, first measurement point. The method, then: On the day before administration of the substance, a catheter for obtaining blood is implanted in the jugular vein of the experimental animals (male Wistar rats, body weight 200-250 g) under Isoflurane. anesthesia.
Urine and faeces are taken collected from metabolic cages over the course of 144 h after administration of the substance. The administration volume is 10 ml/kg for oral and 1 ml/kg for IV in male Wistar rats. Intravenous administration is via a formulation of 2% N—N Dimethyl acetamide/ethanol 10%/PEG400(30%)/water for IV injection (58%) and via Tween80/PEG400/sterile water in the case of oral administration. Urine and faeces collection is 0-4, 4-8, 8-24, 24-48, 48-72, 72-96, 96-120, 120-144 in the case of IV and for oral administration.
Urine and faeces was processed and IS containing Acetonitrile is added to a defined urine/faeces and precipitated. After centrifugation, compound formula (B) and, where appropriate, known cleavage products of the compound formula (B) in the supernatant are determined quantitatively using a suitable LC/MS-MS method.
The measured urine and faeces concentrations are used to calculate parameters of the test substance and of the active ingredient compound (A) liberated there from, such as AUC and Cmax.
Acetonitrile containing IS is added to the study samples, calibration samples and QCs, and the protein is precipitated using acetonitrile. […]

As to `O=CN(C[C@H]1CN(c2ccc(N3CCOCC3=O)cc2)C(=O)O1)C(=O)c1ccc(Cl)s1` [compound formula (B), 5-chloro-N-formyl-N-({(5S)-2-oxo-3-[4-(3-oxomorpholin-4-yl)phenyl]-1,3-oxazolidin-5-yl}methyl)thiophene-2-carboxamide], the “Anticoagulant activity” value in data set [1] is “significant anticoagulant activity”. For the same molecule, in data set [2], the “Observation: amount of test product” value is on record as “Not quantificable amount of test” and the “Observation: formed Rivaroxaban bound to plasma protein” value is recorded as “Rivaroxaban found to be High”. The “Detectability of unchanged test substance in urine and faeces” value in data set [3] was “no longer detectable”.
